Test results published in ChEMBL document CHEMBL1201862, “PubChem BioAssay data set” (2004).
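Each compound was tested at five concentrations against cells in 96-well plates for 48 hours. GI50 is the concentration that inhibits growth by half.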 Calls of active or inactive are those of the source. Cut-off read from the data, not from the text of the source: active = GI50 up to about 1.1 µM and inactive = higher.

Columns and labels:
Assay in all cases: NCI tumour cell line growth inhibition, 48 h
A549 = system: A549
CCRF-CEM = system: CCRF-CEM
DU-145 = system: DU-145
HCT-116 = system: HCT-116
HL-60 = system: HL-60
IGROV-1 = system: IGROV-1
K562 = system: K562
KM12 = system: KM12
M14 = system: M14
MDA-MB-231 = system: MDA-MB-231
NCI-H23 = system: NCI-H23
OVCAR-3 = system: OVCAR-3
RXF 393 = system: RXF 393
SK-MEL-5 = system: SK-MEL-5
SNB-19 = system: SNB-19
SW-620 = system: SW-620
UO-31 = system: UO-31
NCI-H460 = system: NCI-H460
SK-OV-3 = system: SK-OV-3

Measured: GI50

COC(=O)C1=C(C(=O)OC)SC(=C2S[C@@H]3[C@@H]4C[C@H]([C@@H]3S2)[C@H]2C(=O)OC(=O)[C@@H]42)S1
inactive: A549 > 100 µM | CCRF-CEM > 100 µM | DU-145 > 100 µM | HCT-116 > 100 µM | HL-60 > 100 µM | IGROV-1 > 100 µM | K562 > 100 µM | KM12 > 100 µM | M14 > 100 µM | MDA-MB-231 > 100 µM | NCI-H23 > 100 µM | OVCAR-3 > 100 µM | RXF 393 > 100 µM | SK-MEL-5 > 100 µM | SNB-19 > 100 µM | SW-620 > 100 µM | UO-31 > 100 µM

COc1cc(CNc2ccc3nc4n(c(=O)c3c2)CCCCC4)cc(OC)c1OC
inactive: A549 51.1 µM | CCRF-CEM 13.6 µM | DU-145 66.7 µM | HCT-116 57.5 µM | HL-60 > 100 µM | IGROV-1 95.1 µM | K562 > 100 µM | KM12 58.6 µM | M14 94.4 µM | MDA-MB-231 27.3 µM | NCI-H23 37.2 µM | NCI-H460 39.9 µM | OVCAR-3 39.8 µM | RXF 393 58.6 µM | SK-MEL-5 22.3 µM | SK-OV-3 > 100 µM | SW-620 > 100 µM | UO-31 35.4 µM

N#CNC(=N)Nc1ccc(Cl)cc1
inactive: A549 > 100 µM | DU-145 > 100 µM | HCT-116 > 100 µM | IGROV-1 > 100 µM | K562 > 100 µM | KM12 > 100 µM | M14 > 100 µM | MDA-MB-231 > 100 µM | NCI-H23 > 100 µM | NCI-H460 > 100 µM | OVCAR-3 > 100 µM | RXF 393 > 100 µM | SK-MEL-5 > 100 µM | SK-OV-3 > 100 µM | SNB-19 > 100 µM | SW-620 > 100 µM | UO-31 > 100 µM

CC(C)(C)c1cc(/C=C2/NC(=O)NC2=O)cc(C(C)(C)C)c1O
inactive: CCRF-CEM 11.9 µM | DU-145 15.6 µM | HCT-116 14.1 µM | HL-60 10.8 µM | IGROV-1 16 µM | K562 13.2 µM | KM12 13.2 µM | MDA-MB-231 12.6 µM | NCI-H23 15 µM | NCI-H460 14.5 µM | OVCAR-3 14.2 µM | RXF 393 6.25 µM | SK-MEL-5 13.7 µM | SK-OV-3 16.8 µM | SW-620 18.3 µM

COc1ccc(-n2c(C)nc3ccc(NC4OC(COC(C)=O)C(OC(C)=O)C(OC(C)=O)C4OC(C)=O)cc3c2=O)cc1 (centres undefined)
inactive: DU-145 > 100 µM | HCT-116 21.8 µM | HL-60 20.3 µM | IGROV-1 > 100 µM | K562 36.7 µM | KM12 > 100 µM | MDA-MB-231 > 100 µM | NCI-H23 60.4 µM | NCI-H460 > 100 µM | OVCAR-3 > 100 µM | RXF 393 27.8 µM | SK-MEL-5 > 100 µM | SNB-19 > 100 µM | SW-620 39.1 µM | UO-31 > 100 µM

COc1ccc(-c2ncnc(-c3ccc(OC)c(OC)c3)n2)cc1OC
inactive: A549 > 100 µM | CCRF-CEM > 100 µM | DU-145 > 100 µM | HCT-116 > 100 µM | HL-60 > 100 µM | IGROV-1 > 100 µM | K562 > 100 µM | KM12 > 100 µM | M14 > 100 µM | MDA-MB-231 > 100 µM | NCI-H23 > 100 µM | OVCAR-3 > 100 µM | RXF 393 36.5 µM | SK-MEL-5 > 100 µM | SK-OV-3 > 100 µM | SW-620 > 100 µM | UO-31 91 µM

O=C(CCCN1CCC2(CC1)CC(=O)N(N1CCCCCC1)C2=O)c1ccc(F)cc1
inactive: A549 > 100 µM | CCRF-CEM 5.7 µM | DU-145 > 100 µM | HCT-116 55 µM | HL-60 14.1 µM | IGROV-1 > 100 µM | K562 32.4 µM | M14 33.6 µM | MDA-MB-231 82.6 µM | NCI-H23 54.2 µM | OVCAR-3 > 100 µM | RXF 393 23.6 µM | SK-MEL-5 34.4 µM | SK-OV-3 91.6 µM | SW-620 > 100 µM | UO-31 91.6 µM

CC(C)N/C(=N\C#N)NS(=O)(=O)c1cnccc1Nc1ccc(Cl)cc1
inactive: A549 > 100 µM | CCRF-CEM > 100 µM | DU-145 > 100 µM | HCT-116 > 100 µM | IGROV-1 > 100 µM | K562 > 100 µM | KM12 > 100 µM | M14 > 100 µM | MDA-MB-231 > 100 µM | NCI-H23 > 100 µM | OVCAR-3 > 100 µM | RXF 393 > 100 µM | SK-MEL-5 > 100 µM | SK-OV-3 > 100 µM | SNB-19 > 100 µM | SW-620 > 100 µM | UO-31 > 100 µM

Cc1ccc2ccc(=O)oc2c1
inactive: A549 > 100 µM | CCRF-CEM > 100 µM | DU-145 > 100 µM | HCT-116 > 100 µM | HL-60 > 100 µM | IGROV-1 > 100 µM | K562 > 100 µM | KM12 > 100 µM | M14 > 100 µM | MDA-MB-231 > 100 µM | NCI-H23 > 100 µM | NCI-H460 > 100 µM | OVCAR-3 > 100 µM | RXF 393 > 100 µM | SK-MEL-5 > 100 µM | SW-620 > 100 µM | UO-31 > 100 µM
